Values joined by “and” are separate entries in the source; they are usually repeats but may differ in a detail not shown here. Equal values may be shown once. Toxic doses and inconclusive results are not listed.
System: BDF1 mice, P388 leukemia ip, median survival T/C
Assay: NCI In Vivo Anticancer Drug Screen. Data for tumor model P388 Leukemia (intraperitoneal) in B6D2F1 (BDF1) mice
Settings: endpoint: median survival time, higher = longer survival
Outline: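 Reported as T/C, where T is the survival measurement in dosed animals and C the same measurement in vehicle controls.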

[1] = dose: 50.0 mg/kg/injection, schedule: Q01DX009 (ip), vehicle: saline
[2] = dose: 6.25 mg/kg/injection, schedule: Q01DX009 (ip), vehicle: saline
[3] = dose: 100.0 mg/kg/injection, schedule: Q01DX009 (ip), vehicle: Klucel (hydroxypropylcellulose) (HPC)
[4] = dose: 200.0 mg/kg/injection, schedule: Q01DX009 (ip), vehicle: Klucel (hydroxypropylcellulose) (HPC)
[5] = dose: 50.0 mg/kg/injection, schedule: Q01DX009 (ip), vehicle: saline with Tween-80
[6] = dose: 100.0 mg/kg/injection, schedule: Q01DX009 (ip), vehicle: saline with Tween-80
[7] = dose: 200.0 mg/kg/injection, schedule: Q01DX009 (ip), vehicle: saline with Tween-80
[8] = dose: 50.0 mg/kg/injection, schedule: Q01DX009 (ip), vehicle: Klucel (hydroxypropylcellulose) (HPC)
[9] = dose: 50.0 mg/kg/injection, schedule: Q04DX003 (ip), vehicle: saline sonified
[10] = dose: 100.0 mg/kg/injection, schedule: Q04DX003 (ip), vehicle: saline sonified
[11] = dose: 12.5 mg/kg/injection, schedule: Q01DX009 (ip), vehicle: saline
[12] = dose: 25.0 mg/kg/injection, schedule: Q01DX009 (ip), vehicle: saline

CCn1c(O)c(C=N)c(=O)[nH]c1=O was tested, and the T/C [1] was 100 % of control, the T/C (dose: 50.0 mg/kg/injection, schedule: Q04DX003 (ip), vehicle: saline) was 103 % of control and the T/C (dose: 100.0 mg/kg/injection, schedule: Q01DX009 (ip), vehicle: saline) was 109 % of control. For the same compound, the T/C (dose: 100.0 mg/kg/injection, schedule: Q04DX003 (ip), vehicle: saline) was 100 % of control, the T/C (dose: 200.0 mg/kg/injection, schedule: Q01DX009 (ip), vehicle: saline) was 109 % of control and the T/C (dose: 200.0 mg/kg/injection, schedule: Q04DX003 (ip), vehicle: saline) was 115 % of control.
For Cc1cc2nc(SCC(=O)O)[nH]c2cc1C, the T/C (dose: 100.0 mg/kg/injection, schedule: Q01DX009 (ip), vehicle: gum acacia) was 107 % of control, the T/C (dose: 100.0 mg/kg/injection, schedule: Q04DX003 (ip), vehicle: gum acacia) was 103 % of control and the T/C (dose: 200.0 mg/kg/injection, schedule: Q01DX009 (ip), vehicle: gum acacia) was 100 % of control. For the same compound, the T/C (dose: 200.0 mg/kg/injection, schedule: Q04DX003 (ip), vehicle: gum acacia) was 107 % of control, the T/C (dose: 400.0 mg/kg/injection, schedule: Q01DX009 (ip), vehicle: gum acacia) was 96 % of control and the T/C (dose: 400.0 mg/kg/injection, schedule: Q04DX003 (ip), vehicle: gum acacia) was 107 % of control.
In the case of C=C1C(=O)OC2/C=C(\C)CC/C=C(/C)CC(O)C12 (stereo not given), the T/C (dose: 5.0 mg/kg/injection, schedule: Q04DX003 (ip), vehicle: saline with Tween-80) was 98 % of control, the T/C (dose: 10.0 mg/kg/injection, schedule: Q04DX003 (ip), vehicle: saline with Tween-80) was 114 % of control and the T/C (dose: 20.0 mg/kg/injection, schedule: Q04DX003 (ip), vehicle: saline with Tween-80) was 98 % of control.
With Cn1/c2cc/c1=C(\c1ccc(S(=O)(=O)O)cc1)c1ccc([n-]1)/C(c1ccc(S(=O)(=O)O)cc1)=c1/cc/c([nH]1)=C(\c1ccc(S(=O)(=O)O)cc1)c1ccc([n-]1)/C=2c1ccc(S(=O)(=O)O)cc1.O.O=S(=O)(O)C(F)(F)F.[Cu+2] the T/C [2] was 101 % of control and the T/C [1] was 101 % of control.
In the case of CN(CCC(=O)c1cccc2ccccc12)Cc1ccccc1, the T/C [3] was 115 % of control, the T/C [4] was 100 % of control and the T/C (dose: 400.0 mg/kg/injection, schedule: Q01DX009 (ip), vehicle: Klucel (hydroxypropylcellulose) (HPC)) was 105 % of control.
In the case of C/C(=N\NC(=O)CC(=O)N/N=C(\C)c1ccncc1)c1ccncc1, the T/C (dose: 75.0 mg/kg/injection, schedule: Q01DX009 (ip), vehicle: saline with Tween-80) was 99 % of control, the T/C (dose: 150.0 mg/kg/injection, schedule: Q01DX009 (ip), vehicle: saline with Tween-80) was 90 % of control and the T/C (dose: 300.0 mg/kg/injection, schedule: Q01DX009 (ip), vehicle: saline with Tween-80) was 94 % of control.
In the case of CCOC1OCN(c2ccc(OC)cc2)CC1(C)C (stereo not given), the T/C [5] was 98 % of control and 100 % of control, the T/C [6] was 113 % of control and 114 % of control and the T/C [7] was 116 % of control and 124 % of control.
With COC(=O)c1ccccc1NC(=O)CCl the T/C (dose: 50.0 mg/kg/injection, schedule: Q04DX003 (ip), vehicle: saline with Tween-80) was 100 % of control and the T/C (dose: 100.0 mg/kg/injection, schedule: Q04DX003 (ip), vehicle: saline with Tween-80) was 87 % of control.
In the case of O=P(N1CC1)(N1CC1)N1CC2CCC(CC2)C1, the T/C (dose: 25.0 mg/kg/injection, schedule: Q04DX003 (ip), vehicle: saline) was 163 % of control and the T/C (dose: 37.5 mg/kg/injection, schedule: Q04DX003 (ip), vehicle: saline) was 236 % of control.
In the case of BrCC12CCC1(CBr)COC2 (stereo not given), the T/C (dose: 100.0 mg/kg/injection, schedule: Q01DX001 (ip), vehicle: Klucel (hydroxypropylcellulose) (HPC)) was 107 % of control, the T/C (dose: 200.0 mg/kg/injection, schedule: Q01DX001 (ip), vehicle: Klucel (hydroxypropylcellulose) (HPC)) was 92 % of control and the T/C (dose: 400.0 mg/kg/injection, schedule: Q01DX001 (ip), vehicle: Klucel (hydroxypropylcellulose) (HPC)) was 100 % of control.
In the case of COc1cc2c(c(OC)c1OC)CC/C(=C\O)C2=O, the T/C [8] was 112 % of control, the T/C [3] was 114 % of control and the T/C [4] was 106 % of control.
With CCCCCCC(=O)/C=C/c1ccc(OC)cc1 the T/C [5] was 94 % of control, the T/C [6] was 103 % of control and the T/C [7] was 90 % of control.
With CC1CN1S(=O)(=O)N1CC1C (stereo not given) the T/C (dose: 3.75 mg/kg/injection, schedule: Q01DX009 (ip), vehicle: saline with Tween-80) was 100 % of control, the T/C (dose: 7.5 mg/kg/injection, schedule: Q01DX009 (ip), vehicle: saline with Tween-80) was 112 % of control and the T/C (dose: 15.0 mg/kg/injection, schedule: Q01DX009 (ip), vehicle: saline with Tween-80) was 158 % of control. For the same compound, the T/C (dose: 16.5 mg/kg/injection, schedule: Q04DX003 (ip), vehicle: saline with Tween-80) was 113 % of control, the T/C (dose: 25.0 mg/kg/injection, schedule: Q04DX003 (ip), vehicle: saline with Tween-80) was 154 % of control and 213 % of control and the T/C (dose: 30.0 mg/kg/injection, schedule: Q01DX009 (ip), vehicle: saline with Tween-80) was 258 % of control. The T/C (dose: 37.5 mg/kg/injection, schedule: Q04DX003 (ip), vehicle: saline with Tween-80) was 204 % of control.
For C=CCn1c2ccccc2c2cc3cnccc3c(C)c21, the T/C [9] was 95 % of control, the T/C [10] was 90 % of control and the T/C (dose: 200.0 mg/kg/injection, schedule: Q04DX003 (ip), vehicle: saline sonified) was 95 % of control.
S=C1N(c2ccccc2)CN(C2CCCCC2)CN1c1ccccc1 was tested, and the T/C [5] was 89 % of control, the T/C [6] was 90 % of control and the T/C [7] was 89 % of control.
CCN(CC)CCCCCCNc1cc(OC)c(F)c2c(C)ccnc12 was tested, and the T/C (dose: 3.13 mg/kg/injection, schedule: Q01DX009 (ip), vehicle: saline) was 109 % of control, the T/C [2] was 107 % of control and the T/C [11] was 116 % of control.
For CCOC(=O)c1ccc(C(=O)OCC)c(Cl)n1, the T/C (dose: 25.0 mg/kg/injection, schedule: Q01DX009 (ip), vehicle: Klucel (hydroxypropylcellulose) (HPC)) was 112 % of control, the T/C (dose: 25.0 mg/kg/injection, schedule: Q04DX003 (ip), vehicle: Klucel (hydroxypropylcellulose) (HPC)) was 95 % of control and the T/C [8] was 95 % of control. The T/C (dose: 50.0 mg/kg/injection, schedule: Q04DX003 (ip), vehicle: Klucel (hydroxypropylcellulose) (HPC)) was 100 % of control, the T/C [3] was 87 % of control and the T/C (dose: 100.0 mg/kg/injection, schedule: Q04DX003 (ip), vehicle: Klucel (hydroxypropylcellulose) (HPC)) was 86 % of control and 91 % of control.
In the case of Nc1ccc2ccccc2c1N=Nc1ccc(C(O)C(N)CO)cc1 (stereo not given), the T/C (dose: 6.25 mg/kg/injection, schedule: Q01DX009 (ip), vehicle: saline sonified) was 100 % of control, the T/C (dose: 12.5 mg/kg/injection, schedule: Q01DX009 (ip), vehicle: saline sonified) was 112 % of control and the T/C (dose: 25.0 mg/kg/injection, schedule: Q01DX009 (ip), vehicle: saline sonified) was 100 % of control.
For CN(C)CCC(=O)c1ccccc1, the T/C [12] was 100 % of control.
For OCC1C2CCC(C2)C1CO (stereo not given), the T/C [11] was 105 % of control, the T/C [12] was 110 % of control and the T/C [1] was 115 % of control. The T/C (dose: 75.0 mg/kg/injection, schedule: Q01DX009 (ip), vehicle: saline) was 115 % of control and the T/C (dose: 115.0 mg/kg/injection, schedule: Q01DX009 (ip), vehicle: saline) was 95 % of control.
In the case of CC(=O)Oc1cccnc1C(C#N)C(C)=O (stereo not given), the T/C (dose: 50.0 mg/kg/injection, schedule: Q01DX005 (ip), vehicle: saline with Tween-80) was 90 % of control, the T/C (dose: 100.0 mg/kg/injection, schedule: Q01DX005 (ip), vehicle: saline with Tween-80) was 99 % of control and the T/C (dose: 200.0 mg/kg/injection, schedule: Q01DX005 (ip), vehicle: saline with Tween-80) was 87 % of control.
For O=C(Nc1cc(C(F)(F)F)cc(C(F)(F)F)c1)Nc1c(Oc2ccc(Cl)cc2Cl)ccc(Cl)c1S(=O)(=O)O, the T/C [9] was 87 % of control and the T/C [10] was 87 % of control.

From PubChem BioAssay AID328 (DTP/NCI, 2004)
